Data on 22 molecules can be found in patent US20110269758A1, “NAPHTHYRIDINONES AS PROTEIN KINASE INHIBITORS” (MERCK PATENT GMBH, priority 2008, published 2011).

In one test the target is T1, Aurora Kinase A (Homo sapiens, UniProt O14965).
T1 construct: full length Aurora A (1-403 amino acids); purchased Carna Biosciences 05-101
T1 sequence (O14965 1-403): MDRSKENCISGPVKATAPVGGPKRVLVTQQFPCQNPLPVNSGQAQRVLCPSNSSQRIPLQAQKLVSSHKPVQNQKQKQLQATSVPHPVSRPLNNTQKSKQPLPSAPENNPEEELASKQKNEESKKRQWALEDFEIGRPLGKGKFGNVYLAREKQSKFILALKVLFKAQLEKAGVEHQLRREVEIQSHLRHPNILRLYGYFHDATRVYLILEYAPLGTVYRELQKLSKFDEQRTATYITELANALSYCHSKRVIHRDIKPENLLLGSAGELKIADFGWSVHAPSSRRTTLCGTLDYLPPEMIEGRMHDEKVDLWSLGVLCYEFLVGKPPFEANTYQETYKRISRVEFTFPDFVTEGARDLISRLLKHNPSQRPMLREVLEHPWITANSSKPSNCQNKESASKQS
In words: Biochemical enzyme assay for Aurora A activity (Caliper LC3000 / Desktop Profiler mobility shift). As to conditions: GST-Aurora A, 15 μM ATP, 90 min at 25° C.; LC3000 or Desktop Profiler; read-out: Aurora Kinase A IC50. The method, then: (§1) The Aurora assays described here were performed on two Caliper Life Sciences systems, the LC3000 and the Desktop Profiler. These provide data on enzyme activity via measurement of the relative amounts of phosphorylated or unphosphorylated fluorescently labelled substrate peptide at the end of an enzymatic reaction. These different states of peptide are resolved by applying a potential difference across the sample. The presence of a charged phosphate group on the product (as opposed to the substrate) causes a different peptide mobility between the two peptides. This is visualized by excitation of a fluorescent label on the substrate and product peptides and represented as peaks within the analysis software.
In order to measure inhibitor activity of Aurora A inhibitors in the Caliper Life Sciences LC3000, a TTP Mosquito liquid handling instrument was used to place 0.25 μl of an appropriate concentration of inhibitor in 100% DMSO (for a dose response curve calculation) into each well of a 384-well plate.
The reaction was incubated for 90 min at 25° C., and then stopped by the addition of 70 μl of Stop buffer (100 mM HEPES pH 7.5, 0.015% Brij-35, 10 mM EDTA (Sigma, E7889)).
The plate was read on a Caliper LC 3000 in an Off-Chip mobility shift assay format, using the following parameters for a 12-sipper chip: screening pressure −1.8 psi, upstream voltage −2700, downstream voltage −1000. These conditions cause unphosphorylated substrate and phosphorylated product peptide to resolve as separate peaks allowing direct measurement of percentage of conversion of substrate to product.
(§2) The Desktop Profiler utilizes the same prinicipal as the LC 3000 for calculating percentage conversion of a substrate to product. Caliper Life Sciences provided proprietary flash frozen pre-made 384 well plates containing selected kinases. Each column in the 384 well plate contained a particular selected kinase. A second plate, the ‘substrate plate’ contained a mix of fluorescently labeled peptide substrate and ATP. These were arranged in columns so that transfer for substrate plate to enzyme plate provided the correct enzyme with the correct substrate/ATP concentration.
(§3) Compounds were added to a thawed enzyme plate in the desired format, in single concentrations. Reactions were initiated by transfer of the substrate/ATP mix from the substrate plate. The enzyme plate was incubated for 90 mins at 25° C. The reaction was stopped by addition of 70 μl of Stop Buffer (100 mM HEPES pH 7.5, 0.015% Brij-35, 10 mM EDTA (Sigma, E7889)).
Plates were read in a manner identical to that of the LC3000, and the ratio between substrate and product peaks provided the activity of the enzyme in that well.

Another test addresses Aurora Kinase B (Homo sapiens, UniProt Q96GD4). In words: Biochemical enzyme assay for Aurora B activity (Caliper mobility shift). To be noted: LC3000 or Desktop Profiler. The method, then: as §1, §2, §3
Plates were read in a manner identical to that of the LC3000, and the ratio between substrate and product peaks provided the activity of the enzyme in that well. This was best represented by a plate heat map which colors each well by percent inhibition as compared to positive and negative controls (no inhibitors and no ATP respectively).

Test [1] relates to leukemia, colon and pancreatic tumors. To be noted: variety of in vivo xenograft models, well-tolerated doses; cited from earlier work.
Another test deals with human tumor types. As to conditions: diverse range of human tumor types; cited from earlier work.
For test [2], the system named is tumor cells of various origins. As to conditions: cited from earlier work.
The test system of test [3] is cyclin-dependent kinases (CDKs) and Aurora kinases. As to conditions: cited from earlier work.

Sequence of Aurora Kinase B (Q96GD4 whole entry): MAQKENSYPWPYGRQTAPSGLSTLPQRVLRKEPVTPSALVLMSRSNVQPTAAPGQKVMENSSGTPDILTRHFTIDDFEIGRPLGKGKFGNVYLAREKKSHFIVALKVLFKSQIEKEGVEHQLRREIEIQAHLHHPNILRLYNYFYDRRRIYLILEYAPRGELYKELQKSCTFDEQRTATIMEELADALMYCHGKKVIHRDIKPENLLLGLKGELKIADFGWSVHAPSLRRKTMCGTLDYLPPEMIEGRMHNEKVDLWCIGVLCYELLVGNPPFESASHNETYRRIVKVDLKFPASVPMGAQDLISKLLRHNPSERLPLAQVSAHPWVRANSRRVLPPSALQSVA

On to `Nc1ccc(NC(=O)c2ccccc2C(F)(F)F)cc1` [Compound 5, N-(4-Aminophenyl)-2-trifluoromethyl-benzamide], for which the IC50 on Aurora Kinase A and at Aurora Kinase B was 1 to 300 nM in each case. Consider `CN(C)CCNC(=O)c1cc2c(Nc3ccc(NC(=O)c4ccccc4)cc3)ncnc2[nH]c1=O` [Compound 86, 4-(4-Benzoylamino-phenylamino)-7-oxo-7,8-dihydro-pyrido[2,3-d]pyrimidine-6-carboxylic acid 2-(dimethylamino-ethyl)-amide], for which the figures for the IC50 on Aurora Kinase A and at Aurora Kinase B were greater than 1000 nM and 601 to 1000 nM, respectively. For `O=C(Nc1ccc(Nc2ccnc3[nH]c(=O)ccc23)cc1)c1ccc(C(F)(F)F)cc1` [Compound 38, 4-Trifluoromethyl-N-(4-(7-oxo-7,8-dihydro-1,8-naphthyridin-4-yl-amino)phenyl)benzamide] the same measures were greater than 1000 nM and greater than 1000 nM.

As for `Cc1cc(Nc2cc(N3CCN(C)CC3)nc(Sc3ccc(NC(=O)C4CC4)cc3)n2)n[nH]1` [VX-680], in test [1], the “inhibition of tumor growth” value is recorded as “profound inhibition of tumor growth”. Further, the “effect on cell-cycle progression and apoptosis” value with human tumor types was “blocks cell-cycle progression and induces apoptosis”. As for `O=C(Nc1ccc(Nc2ccnc3[nH]c(=O)cc(OCC4CC4)c23)cc1)c1ccccc1` [Compound 93, N-[4-(5-Cyclopropylmethoxy-7-oxo-7,8-dihydro-[1,8]naphthyridin-4-ylamino)-phenyl]benzamide], the concentration for half-maximal inhibition (IC50) on Aurora Kinase A and on Aurora Kinase B was 1 to 300 nM in each case. In the case of `Nc1ccc(NC(=O)c2ccc(C(F)(F)F)cc2)cc1` [Compound 6, N-(4-Aminophenyl)-4-trifluoromethyl-benzamide], the concentration for half-maximal inhibition (IC50) on Aurora Kinase A and at Aurora Kinase B was 1 to 300 nM throughout. Consider `O=C(Nc1ccc(Nc2ccnc3[nH]c(=O)ccc23)cc1)c1ccccc1C(F)(F)F` [Compound 37, 2-Trifluoromethyl-N-(4-(7-oxo-7,8-dihydro-1,8-naphthyridin-4-yl-amino)phenyl)benzamide], for which the IC50 at Aurora Kinase A and at Aurora Kinase B was 601 to 1000 nM in each case. As for `O=C(Nc1ccc(Nc2ccnc3[nH]c(=O)cc(O)c23)cc1)c1ccccc1` [Compound 92, N-[4-(5-Hydroxy-7-oxo-7,8-dihydro-[1,8]naphthyridin-4-ylamino)-phenyl]-benzamide], the half-inhibitory concentration (IC50) on Aurora Kinase A and on Aurora Kinase B was 1 to 300 nM throughout. Take `Nc1cc2c(Nc3ccc(NC(=O)c4ccc(F)cc4C(F)(F)F)cc3)ccnc2[nH]c1=O` [Compound 90, 4-Fluoro-2-trifluoromethyl-N-(4-(6-amino-7-oxo-7,8-dihydro-1,8-naphthyridin-4-yl-amino)phenyl)benzamide]: the IC50 at Aurora Kinase A and at Aurora Kinase B was 1 to 300 nM throughout. For the molecule `Nc1cc2c(Nc3ccc(NC(=O)c4ccc(F)c(F)c4)cc3)ccnc2[nH]c1=O` [Compound 89, 3,4-Difluoro-N-(4-(6-amino-7-oxo-7,8-dihydro-1,8-naphthyridin-4-yl-amino)phenyl)benzamide], the IC50 on Aurora Kinase A and on Aurora Kinase B was 1 to 300 nM in each case.

As to `O=C(Nc1ccc(Nc2ccnc3[nH]c(=O)cc(O)c23)cc1)c1ccc(F)cc1C(F)(F)F` [Compound 91, 4-Fluoro-N-[4-(5-hydroxy-7-oxo-7,8-dihydro-[1,8]naphthyridin-4-ylamino)-phenyl]-2 trifluoromethyl-benzamide], the IC50 at Aurora Kinase A and on Aurora Kinase B was 1 to 300 nM in each case. With `Cc1cc(=O)[nH]c2nccc(Nc3ccc(NC(=O)c4ccc(F)cc4C(F)(F)F)cc3)c12` [Compound 95, 4-Fluoro-N-[4-(5-methyl-7-oxo-7,8-dihydro-[1,8]naphthyridin-4-ylamino)-phenyl]-2 trifluoromethyl-benzamide], the IC50 on Aurora Kinase A and on Aurora Kinase B was 1 to 300 nM in each case. In the case of `Cc1cc(=O)[nH]c2nccc(Nc3ccc(NC(=O)c4ccccc4)cc3)c12` [Compound 94, N-[4-(5-Methyl-7-oxo-7,8-dihydro-[1,8]naphthyridin-4-ylamino)-phenyl]-benzamide], the IC50 on Aurora Kinase A and at Aurora Kinase B was 1 to 300 nM throughout. For the molecule `O=C(Nc1ccc(Nc2ccnc3[nH]c(=O)ccc23)cc1)c1cccc(C(F)(F)F)c1F` [Compound 39, 2-Fluoro-3-Trifluoromethyl-N-(4-(7-oxo-7,8-dihydro-1,8-naphthyridin-4-yl-amino)phenyl)benzamide], the IC50 on Aurora Kinase A and on Aurora Kinase B was greater than 1000 nM in each case. On to `Nc1ccc(NC(=O)c2c(F)cccc2F)cc1` [Compound 9, N-(4-Aminophenyl)-2,6-difluoro-benzamide], for which the half-maximal inhibitory concentration (IC50) at Aurora Kinase A and at Aurora Kinase B was 1 to 300 nM in each case. For `O=C(Nc1ccc(Nc2ccnc3[nH]c(=O)c(C(=O)NC[C@H](O)CO)c(-c4ccccc4)c23)cc1)c1ccc(F)c(F)c1` [Compound 79, 5-[(3,4-Difluoro-benzoylamino)-phenylamino]-2-oxo-4-phenyl-1,2-dihydro-1,8-naphthyridine-3-carboxylic acid ((S)2,3-dihydroxypropyl)-amide], the IC50 (commonly the concentration at which inhibition is half-maximal) at Aurora Kinase A is greater than 1000 nM. As to `O=C(Nc1ccc(Nc2ccnc3[nH]c(=O)c(F)cc23)cc1)c1ccc(F)cc1C(F)(F)F` [Compound 96, 4-Fluoro-N-[4-(6-fluoro-7-oxo-7,8-dihydro-[1,8]naphthyridin-4-ylamino)-phenyl]-2 trifluoromethyl-benzamide], the IC50 on Aurora Kinase A and at Aurora Kinase B was 1 to 300 nM throughout. Regarding `O=C(Nc1ccc(Nc2ccnc3[nH]c(=O)ccc23)cc1)C1CCCCC1` [Compound 45, N-(4-(7-oxo-7,8-dihydro-1,8-naphthyridin-4-yl-amino)phenyl)cyclohexanecarboxamide], on Aurora Kinase A, the half-inhibitory concentration (IC50) was in the range of 1 to 300 nM. Same read-out and setting: the same measure for `Nc1ccc(NC(=O)c2ccc(F)cc2F)cc1` [Compound 12, N-(4-Aminophenyl)-2,4-difluoro-benzamide]: 1 to 300 nM; for `CC(C)(C)C(=O)Nc1nccc(Cl)c1C=O` [Compound 29, N-(4-chloro-3-formylpyridin-2-yl)-2,2-dimethylpropanamide]: 301 to 600 nM. As for `Cc1ccccc1C(=O)Nc1ccc(N)cc1` [Compound 22, N-(4-Aminophenyl)-2-methyl-benzamide], on Aurora Kinase A, the half-inhibitory concentration (IC50) fell in the range of 601 to 1000 nM. As for `Nc1nc(Nc2ccc(S(N)(=O)=O)cc2)nn1C(=O)c1c(F)cccc1F` [JNJ-7706621], the “proliferation of tumor cells” value in test [2] is recorded as “selectively blocked proliferation”. Further, the “inhibition of CDKs and Aurora kinases” value in test [3] was “potent inhibition”.
